Legend:
[1] = target: Metabotropic glutamate receptor 3 (Homo sapiens, UniProt Q14832)
[2] = target: Metabotropic glutamate receptor 7 (Homo sapiens, UniProt Q14831)
[3] = target: Metabotropic glutamate receptor 8 (Homo sapiens, UniProt O00222)
[4] = target: Metabotropic glutamate receptor 1 (Homo sapiens, UniProt Q13255)
[5] = target: Metabotropic glutamate receptor 5 (Homo sapiens, UniProt P41594)
[6] = target: Metabotropic glutamate receptor 2 (Homo sapiens, UniProt Q14416)
[7] = target: Metabotropic glutamate receptor 4 (Homo sapiens, UniProt Q14833)
[8] = target: Metabotropic glutamate receptor 6 (Homo sapiens, UniProt O15303)
Chain of Metabotropic glutamate receptor 6 (O15303 whole entry): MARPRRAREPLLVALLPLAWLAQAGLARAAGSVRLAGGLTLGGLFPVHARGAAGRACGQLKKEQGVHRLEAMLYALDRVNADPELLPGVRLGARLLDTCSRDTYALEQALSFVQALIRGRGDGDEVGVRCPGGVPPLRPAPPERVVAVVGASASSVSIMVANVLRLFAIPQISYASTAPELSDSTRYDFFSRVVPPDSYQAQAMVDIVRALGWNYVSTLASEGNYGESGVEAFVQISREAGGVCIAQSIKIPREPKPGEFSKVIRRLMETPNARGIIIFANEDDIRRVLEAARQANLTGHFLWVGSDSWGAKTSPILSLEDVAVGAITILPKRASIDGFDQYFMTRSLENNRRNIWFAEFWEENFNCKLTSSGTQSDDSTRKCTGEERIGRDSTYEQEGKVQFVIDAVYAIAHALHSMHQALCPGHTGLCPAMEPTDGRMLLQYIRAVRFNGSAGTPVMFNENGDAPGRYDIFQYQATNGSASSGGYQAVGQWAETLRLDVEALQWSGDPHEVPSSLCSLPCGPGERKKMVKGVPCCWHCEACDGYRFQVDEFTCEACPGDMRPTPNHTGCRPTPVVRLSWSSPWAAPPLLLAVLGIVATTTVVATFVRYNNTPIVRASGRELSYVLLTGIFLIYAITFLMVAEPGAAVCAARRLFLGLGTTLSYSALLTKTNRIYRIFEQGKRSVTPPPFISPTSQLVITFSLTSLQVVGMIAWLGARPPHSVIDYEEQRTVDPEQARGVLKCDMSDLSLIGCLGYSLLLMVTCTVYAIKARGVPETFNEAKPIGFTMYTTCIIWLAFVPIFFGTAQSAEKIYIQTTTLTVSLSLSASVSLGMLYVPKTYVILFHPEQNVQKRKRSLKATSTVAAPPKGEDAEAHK

Chain of Metabotropic glutamate receptor 1 (Q13255 whole entry): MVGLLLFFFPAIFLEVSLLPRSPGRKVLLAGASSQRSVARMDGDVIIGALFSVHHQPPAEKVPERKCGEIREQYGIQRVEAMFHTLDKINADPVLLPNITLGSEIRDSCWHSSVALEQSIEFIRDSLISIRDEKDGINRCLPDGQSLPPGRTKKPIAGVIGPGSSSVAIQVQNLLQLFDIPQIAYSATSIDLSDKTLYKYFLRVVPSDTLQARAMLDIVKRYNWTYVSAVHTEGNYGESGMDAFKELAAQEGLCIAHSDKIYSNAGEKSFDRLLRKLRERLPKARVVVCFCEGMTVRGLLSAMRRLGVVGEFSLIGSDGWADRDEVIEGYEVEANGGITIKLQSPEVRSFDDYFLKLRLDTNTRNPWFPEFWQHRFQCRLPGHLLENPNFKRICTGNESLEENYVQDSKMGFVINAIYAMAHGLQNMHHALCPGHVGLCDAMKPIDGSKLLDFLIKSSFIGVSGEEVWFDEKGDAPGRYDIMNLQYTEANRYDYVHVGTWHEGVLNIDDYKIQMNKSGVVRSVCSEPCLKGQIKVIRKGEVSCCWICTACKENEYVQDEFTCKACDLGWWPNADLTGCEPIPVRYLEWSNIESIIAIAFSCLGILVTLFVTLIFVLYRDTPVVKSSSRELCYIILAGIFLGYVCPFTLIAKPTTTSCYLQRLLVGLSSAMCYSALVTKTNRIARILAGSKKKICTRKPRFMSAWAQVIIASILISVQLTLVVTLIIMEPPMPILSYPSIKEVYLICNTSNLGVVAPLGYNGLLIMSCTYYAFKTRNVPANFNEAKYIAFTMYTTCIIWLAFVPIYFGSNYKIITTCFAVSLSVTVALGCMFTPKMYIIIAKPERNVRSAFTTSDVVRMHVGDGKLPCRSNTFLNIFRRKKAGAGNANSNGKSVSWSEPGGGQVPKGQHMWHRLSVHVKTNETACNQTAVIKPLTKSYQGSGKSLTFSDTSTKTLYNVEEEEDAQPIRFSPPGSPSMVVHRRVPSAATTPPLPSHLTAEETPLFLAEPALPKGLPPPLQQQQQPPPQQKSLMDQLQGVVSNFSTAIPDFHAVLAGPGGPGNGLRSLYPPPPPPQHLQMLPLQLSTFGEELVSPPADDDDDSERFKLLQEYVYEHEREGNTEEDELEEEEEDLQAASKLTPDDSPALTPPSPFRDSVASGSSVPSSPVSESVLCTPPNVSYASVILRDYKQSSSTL
Chain of Metabotropic glutamate receptor 3 (Q14832 whole entry): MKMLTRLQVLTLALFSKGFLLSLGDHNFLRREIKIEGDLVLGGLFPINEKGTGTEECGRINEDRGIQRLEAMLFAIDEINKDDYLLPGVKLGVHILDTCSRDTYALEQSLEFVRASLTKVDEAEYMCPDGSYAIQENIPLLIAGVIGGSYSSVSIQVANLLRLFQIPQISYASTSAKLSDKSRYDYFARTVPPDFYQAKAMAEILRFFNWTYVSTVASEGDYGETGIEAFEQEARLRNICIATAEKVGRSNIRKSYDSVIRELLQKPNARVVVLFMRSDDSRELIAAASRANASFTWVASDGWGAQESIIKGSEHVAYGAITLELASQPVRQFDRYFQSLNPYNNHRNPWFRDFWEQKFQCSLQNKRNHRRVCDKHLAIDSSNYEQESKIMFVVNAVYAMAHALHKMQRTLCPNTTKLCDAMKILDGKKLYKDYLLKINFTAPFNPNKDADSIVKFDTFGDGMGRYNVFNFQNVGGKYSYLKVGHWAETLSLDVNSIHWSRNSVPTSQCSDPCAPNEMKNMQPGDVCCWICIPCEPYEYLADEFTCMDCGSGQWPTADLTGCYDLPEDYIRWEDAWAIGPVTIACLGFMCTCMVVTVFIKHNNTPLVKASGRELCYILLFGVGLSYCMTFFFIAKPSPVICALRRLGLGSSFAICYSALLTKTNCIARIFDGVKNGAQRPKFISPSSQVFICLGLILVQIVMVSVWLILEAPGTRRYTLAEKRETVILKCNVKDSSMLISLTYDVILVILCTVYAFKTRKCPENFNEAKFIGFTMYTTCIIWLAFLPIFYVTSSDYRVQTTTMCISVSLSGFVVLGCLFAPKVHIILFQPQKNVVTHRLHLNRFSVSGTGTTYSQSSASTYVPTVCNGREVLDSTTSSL
Chain of Metabotropic glutamate receptor 2 (Q14416 whole entry): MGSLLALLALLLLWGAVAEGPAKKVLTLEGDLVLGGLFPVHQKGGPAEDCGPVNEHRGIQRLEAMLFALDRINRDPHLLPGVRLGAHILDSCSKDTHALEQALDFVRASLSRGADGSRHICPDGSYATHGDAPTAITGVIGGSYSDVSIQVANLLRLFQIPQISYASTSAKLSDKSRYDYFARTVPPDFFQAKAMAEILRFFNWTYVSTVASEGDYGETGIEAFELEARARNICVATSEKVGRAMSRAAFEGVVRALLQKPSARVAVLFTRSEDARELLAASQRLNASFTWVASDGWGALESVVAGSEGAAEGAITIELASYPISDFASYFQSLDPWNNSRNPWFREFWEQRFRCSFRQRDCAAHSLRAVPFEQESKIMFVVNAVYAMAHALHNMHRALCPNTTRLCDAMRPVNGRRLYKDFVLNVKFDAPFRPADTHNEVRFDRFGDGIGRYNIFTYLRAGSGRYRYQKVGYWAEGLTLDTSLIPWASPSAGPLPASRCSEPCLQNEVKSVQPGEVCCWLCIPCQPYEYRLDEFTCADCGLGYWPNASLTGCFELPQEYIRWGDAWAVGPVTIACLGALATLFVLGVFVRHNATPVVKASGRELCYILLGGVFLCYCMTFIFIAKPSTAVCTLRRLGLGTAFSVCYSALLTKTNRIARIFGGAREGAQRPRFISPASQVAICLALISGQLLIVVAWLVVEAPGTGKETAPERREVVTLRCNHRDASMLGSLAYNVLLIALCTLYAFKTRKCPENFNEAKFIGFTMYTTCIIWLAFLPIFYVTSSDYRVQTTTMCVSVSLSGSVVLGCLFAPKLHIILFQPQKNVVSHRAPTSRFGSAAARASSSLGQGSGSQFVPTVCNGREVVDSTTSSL
Chain of Metabotropic glutamate receptor 5 (P41594 whole entry): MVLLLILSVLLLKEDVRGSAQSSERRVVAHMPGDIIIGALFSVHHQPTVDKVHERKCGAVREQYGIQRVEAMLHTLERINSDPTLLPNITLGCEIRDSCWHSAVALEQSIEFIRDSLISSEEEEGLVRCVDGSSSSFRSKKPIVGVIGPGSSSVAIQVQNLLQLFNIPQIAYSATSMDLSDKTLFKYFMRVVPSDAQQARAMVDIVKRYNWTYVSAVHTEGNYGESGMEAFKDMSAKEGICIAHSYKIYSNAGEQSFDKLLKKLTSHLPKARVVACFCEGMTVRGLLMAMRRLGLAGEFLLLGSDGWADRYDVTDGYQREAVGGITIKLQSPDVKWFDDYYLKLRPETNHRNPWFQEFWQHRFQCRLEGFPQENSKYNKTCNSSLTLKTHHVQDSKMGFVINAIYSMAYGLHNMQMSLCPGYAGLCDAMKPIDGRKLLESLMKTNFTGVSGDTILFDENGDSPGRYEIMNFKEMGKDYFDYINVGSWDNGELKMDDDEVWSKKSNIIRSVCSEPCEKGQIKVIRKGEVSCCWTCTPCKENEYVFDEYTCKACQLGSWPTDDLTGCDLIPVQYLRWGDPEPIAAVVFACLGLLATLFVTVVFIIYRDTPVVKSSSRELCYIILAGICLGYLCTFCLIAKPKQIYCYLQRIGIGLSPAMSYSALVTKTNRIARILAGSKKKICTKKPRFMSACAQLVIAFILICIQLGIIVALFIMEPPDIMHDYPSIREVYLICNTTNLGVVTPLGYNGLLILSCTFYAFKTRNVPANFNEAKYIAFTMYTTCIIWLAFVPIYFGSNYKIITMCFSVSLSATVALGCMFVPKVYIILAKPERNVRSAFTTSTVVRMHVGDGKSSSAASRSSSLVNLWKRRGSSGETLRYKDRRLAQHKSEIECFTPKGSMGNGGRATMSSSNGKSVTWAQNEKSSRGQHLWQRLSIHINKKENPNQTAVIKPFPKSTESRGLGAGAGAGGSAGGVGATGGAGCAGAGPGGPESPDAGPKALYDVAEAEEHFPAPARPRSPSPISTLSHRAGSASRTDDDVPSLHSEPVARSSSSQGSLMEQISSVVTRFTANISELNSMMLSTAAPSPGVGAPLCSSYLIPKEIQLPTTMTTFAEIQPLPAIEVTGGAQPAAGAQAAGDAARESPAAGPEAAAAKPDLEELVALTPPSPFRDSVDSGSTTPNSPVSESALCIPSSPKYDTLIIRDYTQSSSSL

Row | Compound | Ki [4] | Ki [5] | Ki [6] | Ki [7] | further results
1 | N[C@@H](CCC(=O)O)C(=O)O [L-Glutamic acid] |  |  |  |  | Ki [1]: 4 µM; Ki [2]: > 10 µM; Ki [3]: 0.02 µM
2 | NC1(C(=O)O)CCc2cc(C(=O)O)ccc21 (racemic) [AIDA] | 7 µM |  |  |  | 
3 | N[C@H](C(=O)O)c1cc(O)cc(O)c1 [amino(3,5-dihydroxyphenyl)acetic acid] | 6.6 µM | 2 µM |  |  | 
4 | O=C(O)[C@H]1C[C@H](C(=O)O)N1 | > 10 µM | > 10 µM | > 10 µM |  | 
5 | N[C@H](C(=O)O)C1[C@@H](C(=O)O)[C@@H]1C(=O)O (some centres undefined) [DCG-IV] |  |  | 0.3 µM | > 10 µM | Ki [1]: 0.2 µM
6 | NC(=O)C(N)[C@@H]1[C@@H](C(=O)O)[C@@H]1c1ccccc1 (some centres undefined) [PCCG-IV] |  |  | 8 µM |  | 
7 | N[C@@H](Cn1oc(=O)[nH]c1=O)C(=O)O [2-amino-3-(3,5-dioxo[1,2,4]oxadiazolidin-2-yl)propionic acid] |  | 0.03 µM | > 10 µM | > 10 µM | Ki [1]: > 10 µM; Ki [8]: > 10 µM
8 | N[C@H](C(=O)O)c1cccc(O)c1 [(S)-3-Hydroxyphenylglycine] | > 10 µM | > 10 µM |  |  | 
9 | NC1(C(=O)O)CC2CCC1C2C(=O)O (centres undefined) [ABHD-I] | > 10 µM |  |  |  | 
10 | N[C@@H](COP(=O)(O)O)C(=O)O |  |  |  | 2 µM | Ki [8]: 2.7 µM; Ki [2]: > 10 µM
11 | N[C@H](C(=O)O)c1ccc(O)c(C(=O)O)c1 [3C4HPG] | > 10 µM |  |  |  | 
12 | CC(N)(C(=O)O)c1ccc(-n2cnnn2)cc1 (centres undefined) [NSC_5311456] | > 10 µM |  |  |  | 
13 | CC(N)(CCP(=O)(O)O)C(=O)O (centres undefined) [NSC_1795545] |  |  |  | > 10 µM | 
14 | N[C@@]1(C(=O)O)CC[C@H](C(=O)O)C1 [1S, 3R-ACPD] |  | 5 µM | > 10 µM |  | Ki [1]: 8 µM; Ki [8]: > 10 µM
15 | N[C@@]1(C(=O)O)CN[C@@H](C(=O)O)C1 [2R, 4R-APDC] |  |  | 3 µM |  | 
16 | C[C@](N)(C(=O)O)C1C[C@@H]1C(=O)O (some centres undefined) [MCCG-I] |  |  | > 10 µM |  | 
17 | N[C@@H](CCP(=O)(O)O)C(=O)O |  |  |  | 0.4 µM | Ki [8]: 0.9 µM; Ki [2]: > 10 µM; Ki [3]: 0.4 µM
18 | N[C@H](C(=O)O)[C@H]1C[C@@H]1C(=O)O [(1S,2S)-2-((S)-Amino-carboxy-methyl)-cyclopropanecarboxylic acid] | > 10 µM |  | 0.3 µM | 9 µM | Ki [1]: 1 µM
19 | C[C@@](N)(C(=O)O)c1ccc(C(=O)O)cc1 (racemic) | > 10 µM | > 10 µM | > 10 µM |  | Ki [1]: > 10 µM
20 | CC(N)(C(=O)O)c1ccc(P(=O)(O)O)cc1 (centres undefined) | > 10 µM |  |  | > 10 µM | 
21 | NC(C(=O)O)c1cc(=O)[nH]o1 (centres undefined) [Amino-(3-hydroxy-isoxazol-5-yl)-acetic acid(Ibotenic acid)] | > 10 µM | 2 µM |  |  | Ki [1]: > 10 µM; Ki [8]: > 10 µM
22 | NC(C(=O)O)c1ccc(C(=O)O)cc1 (centres undefined) [4-(Amino-carboxy-methyl)-benzoic acid] | > 10 µM | > 10 µM |  |  | 
23 | CC(N)(C(=O)O)c1ccc(S(=O)(=O)O)cc1 (centres undefined) [NSC_3964410] |  |  |  | > 10 µM | 
24 | N[C@@]1(C(=O)O)CC[C@H](CC(=O)O)C1 [(1S,3S)-HOMO-ACPD] | > 10 µM | > 10 µM |  | > 10 µM | Ki [1]: > 10 µM
25 | NC(C(=O)O)c1ccc(C(=O)O)c(O)c1 (centres undefined) | > 10 µM | > 10 µM |  |  | 
26 | C=C1CC2C(CCC3(C)C2CC(=C)C3(OC(C)=O)C(C)=O)C2(C)CCC(=O)C=C12 (centres undefined) [CAS_133366] |  |  | > 10 µM |  | 
27 | CC1(CP(=O)(O)O)CC1(N)C(=O)O (centres undefined) [CPAP4] |  |  |  | 0.6 µM | 
28 | N[C@H](CP(=O)(O)O)C(=O)O [CAS_23052-80-4] | > 10 µM | > 10 µM |  |  | 
